Columns and labels:
Molt3 cells [1] = assay: Homotypic adhesion assay (MDHC-induced clumping of T-cells); type: cell-based, human; conditions: 10 μM MDHC, listed as LJCRF-2
Molt3 cells [2] = assay: Cell metabolic assay (MTT); type: cell-based
Experimental: After taking the photographs in Example 3 (and in some instances no photographs were taken), cell metabolic activity was assessed by an MTT assay. A 37.5 μl portion of MTT dye (purchased from SIGMA of St. Louis, Mo.), i.e., 3-[4,5-dimethyl thiazole-2yl]-2, 5- diphenyl tetrazolium bromide; thiazolyl blue) was added to each well, and incubated with the cells at 37° C. for about six hours. After incubation, a 250 μl quantity of a MTT solubilization solution (of a type that may be purchased from either Fischer Scientific of St. Louis, Mo. or BCD Labs of Lawrence, Kans.) was added to each well, and incubated with the cells at room temperature overnight. In the morning, the spectrophotometric absorption of each plate was determined at 570 nm in a microplate ELISA reader manufactured by Cambridge Technologies of Water-town, Mass., in order to assess cell viability as an indicator of potential peptide toxicity.

LFA-1 (CD11a) = molecular target: T1, LFA-1 (CD11a) (Homo sapiens, UniProt P20701); assay: Antibody binding assay (FACS): anti-LFA-1 mAb (mouse IgG anti-human CD11a) binding to Molt3 T-cells after peptide incubation; type: cell-based; conditions: for Fluorescence, % change from control of the medium fluorescence intensity: mAb CD11a, average ± standard error of runs
T1 construct: host or cells: Molt3 human T-cell leukemia line
T1 sequence (P20701 26-1170): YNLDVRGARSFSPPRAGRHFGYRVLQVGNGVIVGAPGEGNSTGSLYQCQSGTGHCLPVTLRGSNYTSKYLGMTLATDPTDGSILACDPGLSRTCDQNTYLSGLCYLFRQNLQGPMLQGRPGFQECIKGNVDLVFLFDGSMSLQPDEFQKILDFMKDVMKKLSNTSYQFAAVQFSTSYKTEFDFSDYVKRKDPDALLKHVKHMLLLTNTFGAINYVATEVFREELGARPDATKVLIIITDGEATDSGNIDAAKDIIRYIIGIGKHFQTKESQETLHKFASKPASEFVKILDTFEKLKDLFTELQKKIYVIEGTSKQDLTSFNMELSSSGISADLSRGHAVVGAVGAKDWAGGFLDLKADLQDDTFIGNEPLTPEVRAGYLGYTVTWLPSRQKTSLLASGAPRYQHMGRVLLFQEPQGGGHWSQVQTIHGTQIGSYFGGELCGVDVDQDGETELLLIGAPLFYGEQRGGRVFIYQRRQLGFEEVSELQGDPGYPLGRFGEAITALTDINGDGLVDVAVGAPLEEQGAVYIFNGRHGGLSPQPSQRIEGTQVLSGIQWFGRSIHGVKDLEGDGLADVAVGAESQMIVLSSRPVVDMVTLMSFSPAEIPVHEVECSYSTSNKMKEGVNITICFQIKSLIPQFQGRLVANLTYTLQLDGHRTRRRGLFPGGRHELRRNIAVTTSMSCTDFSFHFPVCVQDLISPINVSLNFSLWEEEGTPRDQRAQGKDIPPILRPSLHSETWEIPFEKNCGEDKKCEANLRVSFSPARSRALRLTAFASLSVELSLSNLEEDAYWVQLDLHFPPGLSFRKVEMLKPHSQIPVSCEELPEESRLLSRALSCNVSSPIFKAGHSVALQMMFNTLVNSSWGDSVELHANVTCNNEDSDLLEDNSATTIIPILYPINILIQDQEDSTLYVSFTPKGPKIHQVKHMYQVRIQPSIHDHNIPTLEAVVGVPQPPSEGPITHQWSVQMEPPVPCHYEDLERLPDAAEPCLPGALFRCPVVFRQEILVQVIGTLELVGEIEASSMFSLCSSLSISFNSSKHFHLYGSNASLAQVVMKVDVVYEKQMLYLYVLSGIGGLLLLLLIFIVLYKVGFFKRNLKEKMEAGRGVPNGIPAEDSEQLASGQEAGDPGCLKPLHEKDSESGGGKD
T1 sequence (P05107 23-769 partner): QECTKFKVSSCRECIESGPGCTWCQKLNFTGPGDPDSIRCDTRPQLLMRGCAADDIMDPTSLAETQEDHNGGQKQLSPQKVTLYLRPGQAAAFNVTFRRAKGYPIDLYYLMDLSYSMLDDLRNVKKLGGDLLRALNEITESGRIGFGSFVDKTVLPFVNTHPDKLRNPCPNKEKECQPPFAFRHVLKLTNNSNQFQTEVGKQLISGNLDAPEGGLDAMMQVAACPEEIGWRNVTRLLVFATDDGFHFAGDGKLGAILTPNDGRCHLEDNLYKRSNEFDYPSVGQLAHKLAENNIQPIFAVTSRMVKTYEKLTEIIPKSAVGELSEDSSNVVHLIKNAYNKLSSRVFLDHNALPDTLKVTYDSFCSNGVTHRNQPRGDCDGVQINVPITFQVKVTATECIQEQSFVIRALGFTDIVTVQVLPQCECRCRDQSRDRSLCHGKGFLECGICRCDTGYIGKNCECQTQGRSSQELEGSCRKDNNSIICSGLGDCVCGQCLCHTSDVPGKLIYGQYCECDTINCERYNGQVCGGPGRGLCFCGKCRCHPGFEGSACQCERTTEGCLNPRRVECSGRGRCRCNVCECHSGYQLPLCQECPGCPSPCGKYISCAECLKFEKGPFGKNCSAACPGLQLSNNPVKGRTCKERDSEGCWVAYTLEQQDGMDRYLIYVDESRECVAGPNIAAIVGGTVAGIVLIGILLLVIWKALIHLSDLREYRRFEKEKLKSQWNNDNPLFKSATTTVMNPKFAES
Experimental: A 1 ml quantity of the Molt3 inoculum was warmed to 37° C. and transferred by pipette into about 25 ml of a growth culture medium including RPMI 1640 lymphocyte growth medium (Fisher Scientific of St. Louis, Miss.) mixed with 10% by volume fetal calf serum, 100 units/ml penicillin, 100 μg/ml streptomycin and 2 mM glutamine. The inoculated culture was incubated for three to four days at 37° C. under a normal atmosphere having about 5% CO2 added thereto. This culture was capable of being maintained indefinitely by siphoning away the top (non-cell containing) layer and adding 50 ml (or more) of growth culture medium at intervals of three to four days.
An aqueous buffer solution including Dulbecco's phosphate buffered saline and bovine serum albumin ("-PBS/BSA solution") was prepared for use, and included a mixture of 200 mg KH2 PO4, 1.15 g Na2 HPO4, 100 mg CaCl2, 200 mg KCl, 100 mg MgCl2.6H2 O, 8 g NaCl, with distilled water added to a final 1 liter volume at room temperature, thus, forming a "PBS" solution of pH 7.4 to which was added 0.5% by weight bovine serum albumin.
An aliquot of about 7 ml was removed from the incubated culture medium and subjected to washing with the PBS/BSA solution. The washing procedure was initiated by placing the aliquot in a centrifuge (Model GT422 from Jouan, distributed Piruscio & Assoc. of Manchester, Miss.) at 1400 rpm for 6.5 minutes to separate the cells from the growth medium. The supernatant fluid was decanted, a 5 ml portion of PBS/BSA solution was transferred by pipette into the pellet, and the mixture was again centrifuged as before. The resulting supernatant fluid was decanted and the cells from the pellet were resuspended in PBS/BSA solution at a titer of about 1×10^6 cells/ml. A 500 μl portion of the solution containing the resuspended cells was placed in a microcentrifuge (Marathon 13K/M from Fisher Scientific of St. Louis, Miss.) at 3500 rpm for six minutes, to provide a washed pellet.
[…] The cells were incubated with the peptide cocktail at 37° C. for 45 minutes.
After incubation with the peptide cocktail, several antibodies were successively mixed into the incubated solution. A 75 μl portion of anti-IgM solution (a mixture of 10 μl of goat anti-human IgM stock purchased from Jackson Immuno Research of Westgrove, Pa.; and 65 μl of PBS/BSA solution) was added to the peptide cocktail for blocking of nonspecific binding of the secondary antibody. The resulting mixture was incubated for 10 minutes on ice. About 0.1 μg of a primary antibody including mouse IgG anti-human CD11a (purified according to conventional protocols at the University of Kansas Department of Pharmacology and Toxicology from an American Type Culture hybridoma cell line having Catalogue Number HB-202) was next stirred into the mixture, which was then incubated for 30 minutes at room temperature. The incubated mixture was placed in a microcentrifuge at 3500 rpm for six minutes to remove the cells from the mixture, and the cell pellet was washed two times by adding 500 μl aliquots of PBS/BSA solution and microfuging to remove non-bound antibodies from the cells as before. The resulting washed pellet was resuspended in 100 μl of a secondary antibody cocktail including 5 μl of fluorescein isothiocyanate ("FITC") labeled goat anti-mouse IgG (from CALTAG of South San Francisco, Calif.) and 95 μl of PBS/BSA solution. The resulting solution was incubated for 30 minutes at room temperature in the dark.
The incubated solution including the secondary antibody cocktail was microfuged at 3500 rpm for six minutes to remove the cells from the solution, and the cell pellet was washed two times with 500 μl portions of PBS/BSA solution, as before, to remove unbound antibodies. […]

Molt3 cells [3] = assay: Homotypic adhesion assay (MDHC-induced clumping of T-cells); type: cell-based, human; set-up: key to Homotypic Adhesion Amount: Any sample having a score of "+++" or "++++" is considered to have a significant ability to modulate T-cell binding interaction; Any sample having a score of "+++" or "++++" is considered to have a significant ability to modulate T-cell binding interaction; conditions: 10 μM MDHC
Experimental: As before, the T-cells were Molt3 cells prepared in RPMI 1640 growth medium according to Example 2. An approximate 7 ml aliquot of the growth medium was centrifuged (Jouan Model GT422 at 1400 rpm for 6.5 minutes), and the supernatant fluid was decanted. The pellet was resuspended in the supernatant fluid at titer of about 1×10^6 cells/ml, with the excess supernatant fluid being retained for future resuspension of the peptides.
A 228 nmol quantity of the LJCRF-1 (Sequence ID No. 6) peptide described in Table 1 was diluted with the supernatant fluid to a 500 μl final volume, and filtered in microcentrifuge filter tubes (0.22 micron filter; 3500 rpm for 6 minutes). Serial dilution of the filtered peptide with supernatant fluid was conducted to yield five 125 μl peptide solutions to give respective concentrations of about 115 μM, 230 μM, 460 μM, 910 μM, and 1.82 mM. At each concentration, a 125 μl portion of the cell suspension was pipetted into each 125 μl portion of the peptide solutions to yield combined samples having a 250 μl volume. The 250 μl samples were seeded into individual wells in a 48-well tissue culture grade plate (from Costar of Cambridge, Md.) and incubated at 37° C. for 30 minutes. Each sample received 5 μl of 2,5-methyl dihydroxy cinnamate ("MDHC") for a 10 μM final concentration, and was subsequently incubated for about 10 hours at 37° C. MDHC induces intercellular clumping of human T-cells (Tibbetts, Butler, and Benedict, submitted) by activating the LFA/ICAM binding interaction between respective cells.
Pictures were taken of five random fields per sample using an Olympus photomicroscope having a 0.8 mm field at 400×magnification, and a 3.2 mm field of view at 100×magnification. The amount of clumping observed was quantified by determining the mean number of clumps per field ± a standard error.
FIGS. 5, 6, and 7 replicate photographs taken from exemplary peptide assays. FIG. 5 is a photograph of the control sample having no peptides and no MDHC added, from which essentially no clumping of cells is observed. […] Any sample having a score of "+++" or "++++" is considered to have a significant ability to modulate T-cell binding interaction. This is similar to results obtained by incubating similarly treated cells with antibody against either LFA or ICAM.
The homotypic adhesion assay assesses the actual ability of a candidate peptide to modulate the ability of T-cells to adhere with one another.

## SC-3-152: ICAM-derived short-chain peptide, Sequence ID No. 11; modulator peptide (DQPKLLGIETPLPKKELLLPGNNRK)
Molt3 cells [1]; peptide 460 μM
  Homotypic Adhesion Effect: binding enhancers
Molt3 cells [1]; peptide 910 μM
  Homotypic Adhesion Effect: blockers of intercellular adhesion
Molt3 cells [2]; concentration not given
  MTT % Viability: 38%
Molt3 cells [2]; peptide 230 μM
  MTT % Viability: 38%
Molt3 cells [2]; peptide 460 μM
  MTT % Viability: 38%
Molt3 cells [2]; peptide 910 μM
  MTT % Viability: 38%
Molt3 cells [2]; peptide 1820 μM
  MTT % Viability: 43%
LFA-1 (CD11a); peptide 2275 μM
  Fluorescence, % change from control of the medium fluorescence intensity: +48 ± 8%
  effect on antibody binding: enhance such binding
LFA-1 (CD11a); peptide 4550 μM, negative = blocking
  Fluorescence, % change from control of the medium fluorescence intensity: -43 ± 7%
LFA-1 (CD11a); peptide 4550 μM
  effect on antibody binding: block antibody binding
Molt3 cells [3]; peptide 230 μM
  Homotypic Adhesion Amount: +++
  Homotypic Adhesion Effect: Enhance
Molt3 cells [3]; peptide 460 μM
  Homotypic Adhesion Effect: Enhance
Molt3 cells [3]; peptide 910 μM
  Homotypic Adhesion Amount: +++
  Homotypic Adhesion Effect: Block
Molt3 cells [3]; peptide 1820 μM
  Homotypic Adhesion Amount: ++++
  Homotypic Adhesion Effect: Block
